Results taken from the supplement of paper PMC10883282.
± gives the standard deviation of the averaged measurements.

Tested on: MES-SA
Assay: relative viability vs DMSO control (72 h) (fraction); higher = more viable cells
Summary of the method: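 Relative viability is percent growth read by ATPLite and averaged over up to triplicate wells. Sarcoma cells were seeded in 384-well plates to reach 80–90% confluence and given 2.5 µl of serially diluted compound after 24 h, from source plates of 10 mM to 0.0002 mM. Incubation lasted 72 h at 37 °C, 5% CO2, with 0.1% DMSO vehicle and a 5 µM positive control, and the data were rescaled so 1 equals full and 0 equals none.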

Structure (SMILES) | relative viability (0.00017 µM) | relative viability (0.00051 µM) | relative viability (0.00152 µM) | relative viability (0.00457 µM) | relative viability (0.01372 µM) | relative viability (0.04115 µM) | relative viability (0.1235 µM) | relative viability (0.3704 µM) | relative viability (1.111 µM) | relative viability (3.333 µM) | relative viability (10 µM)
CO[C@H]1C[C@@H]2CC[C@@H](C)[C@@](O)(O2)C(=O)C(=O)N2CCCC[C@H]2C(=O)O[C@H]([C@H](C)C[C@@H]2CC[C@@H](OP(C)(C)=O)[C@H](OC)C2)CC(=O)[C@H](C)/C=C(\C)[C@@H](O)[C@@H](OC)C(=O)[C@H](C)C[C@H](C)/C=C/C=C/C=C/1C [Ridaforolimus] | 0.888 ± 0.04 | 0.827 ± 0.055 | 0.599 ± 0.0079 | 0.489 ± 0.015 | 0.423 ± 0.021 | 0.403 ± 0.024 | 0.4 ± 0.0088 | 0.368 ± 0.027 | 0.376 ± 0.0059 | 0.367 ± 0.023 | 0.374 ± 0.024
O=C(Cc1ccc(-c2ccc(OCCN3CCOCC3)cc2)cn1)NCc1ccccc1 [KX2-391] | 0.988 ± 0.041 | 0.976 ± 0.018 | 0.946 ± 0.018 | 0.949 ± 0.026 | 0.9439 ± 0.0022 | 0.448 ± 0.042 | 0.2711 ± 0.0024 | 0.179 ± 0.0046 | 0.143 ± 0.0031 | 0.133 ± 0.004 | 0.13 ± 0.0027
COc1cc2nccc(Oc3ccc(NC(=O)Nc4cc(C)on4)c(Cl)c3)c2cc1OC [Tivozanib] | 0.914 ± 0.018 | 0.926 ± 0.051 | 0.925 ± 0.036 | 0.932 ± 0.035 | 0.94 ± 0.0096 | 0.944 ± 0.035 | 0.923 ± 0.013 | 0.955 ± 0.025 | 0.977 ± 0.021 | 0.697 ± 0.041 | 0.231 ± 0.0086
CCc1cc2c(cc1N1CCC(N3CCOCC3)CC1)C(C)(C)c1[nH]c3cc(C#N)ccc3c1C2=O [Alectinib] | 0.896 ± 0.018 | 0.91 ± 0.026 | 0.895 ± 0.045 | 0.893 ± 0.036 | 0.889 ± 0.068 | 0.944 ± 0.035 | 0.953 ± 0.035 | 0.9459 ± 0.0094 | 0.942 ± 0.018 | 0.968 ± 0.049 | 0.959 ± 0.035
COCc1c(-c2cc3cc(C)cc(OC)c3s2)c2c(N)ncnn2c1CN1CCNC(=O)C1 [Rogaratinib] | 0.974 ± 0.012 | 0.9554 ± 0.0066 | 0.943 ± 0.014 | 0.929 ± 0.014 | 0.939 ± 0.025 | 0.949 ± 0.046 | 0.849 ± 0.018 | 0.732 ± 0.02 | 0.664 ± 0.035 | 0.565 ± 0.012 | 0.389 ± 0.019
CN1CCC(COc2cnc(-c3cccc(Cn4nc(-c5cccc(C#N)c5)ccc4=O)c3)nc2)CC1 [Tepotinib] | 0.962 ± 0.038 | 0.959 ± 0.0044 | 0.95 ± 0.023 | 0.974 ± 0.033 | 0.955 ± 0.043 | 0.928 ± 0.035 | 0.939 ± 0.028 | 0.9528 ± 0.0065 | 0.94 ± 0.042 | 0.875 ± 0.027 | 0.752 ± 0.024
Cc1cnc(Nc2ccc(OCCN3CCCC3)cc2)nc1Nc1cccc(S(=O)(=O)NC(C)(C)C)c1 [Fedratinib] | 0.966 ± 0.046 | 0.959 ± 0.035 | 0.953 ± 0.026 | 0.937 ± 0.029 | 0.949 ± 0.025 | 0.907 ± 0.018 | 0.861 ± 0.018 | 0.679 ± 0.03 | 0.2659 ± 0.0019 | 0.18 ± 0.0027 | 0.028 ± 0.0026
Cn1cnc2c(F)c(Nc3ccc(Br)cc3F)c(C(=O)NOCCO)cc21 [Binimetinib] | 0.927 ± 0.027 | 0.9232 ± 0.0083 | 0.927 ± 0.017 | 0.894 ± 0.042 | 0.892 ± 0.024 | 0.84 ± 0.025 | 0.793 ± 0.02 | 0.7569 ± 0.0022 | 0.782 ± 0.025 | 0.741 ± 0.037 | 0.735 ± 0.059
C[C@@H]1CCN(C(=O)CC#N)C[C@@H]1N(C)c1ncnc2[nH]ccc12 [Tofacitinib] | 0.985 ± 0.035 | 0.955 ± 0.064 | 0.96 ± 0.043 | 0.963 ± 0.05 | 0.966 ± 0.033 | 0.976 ± 0.025 | 0.974 ± 0.031 | 0.953 ± 0.028 | 0.952 ± 0.056 | 0.927 ± 0.042 | 0.873 ± 0.049
Nc1cc(C(F)(F)F)c(-c2cc(N3CCOCC3)nc(N3CCOCC3)n2)cn1 [Buparlisib] | 0.897 ± 0.012 | 0.902 ± 0.0092 | 0.895 ± 0.011 | 0.932 ± 0.022 | 0.907 ± 0.023 | 0.872 ± 0.022 | 0.811 ± 0.022 | 0.677 ± 0.025 | 0.208 ± 0.01 | 0.0825 ± 0.0014 | 0.037 ± 0.0019
Cn1cc(-c2cc3c(N4CCN(c5ncc([C@@](C)(N)c6ccc(F)cc6)cn5)CC4)ncnn3c2)cn1 [Avapritinib] | 0.882 ± 0.024 | 0.867 ± 0.036 | 0.8778 ± 0.0081 | 0.884 ± 0.016 | 0.91 ± 0.016 | 0.902 ± 0.038 | 0.898 ± 0.02 | 0.884 ± 0.018 | 0.795 ± 0.014 | 0.624 ± 0.02 | 0.51 ± 0.011
C=CC(=O)N1CCC([C@@H]2CCNc3c(C(N)=O)c(-c4ccc(Oc5ccccc5)cc4)nn32)CC1 [Zanubrutinib] | 0.9598 ± 0.0038 | 0.965 ± 0.013 | 0.959 ± 0.026 | 0.983 ± 0.033 | 0.918 ± 0.031 | 0.95 ± 0.037 | 0.92 ± 0.041 | 0.965 ± 0.034 | 0.955 ± 0.018 | 0.881 ± 0.041 | 0.742 ± 0.034
CCCS(=O)(=O)Nc1ccc(F)c(C(=O)c2c[nH]c3ncc(-c4ccc(Cl)cc4)cc23)c1F [Vemurafenib] | 0.941 ± 0.024 | 0.951 ± 0.025 | 0.957 ± 0.013 | 0.957 ± 0.026 | 0.955 ± 0.031 | 0.953 ± 0.018 | 0.967 ± 0.028 | 0.995 ± 0.022 | 0.9726 ± 0.0075 | 0.782 ± 0.02 | 0.51 ± 0.01
COc1cc2c(Oc3ccc4[nH]c(C)cc4c3F)ncnc2cc1OCCCN1CCCC1 [Cediranib] | 0.944 ± 0.036 | 0.934 ± 0.065 | 0.949 ± 0.041 | 0.929 ± 0.037 | 0.967 ± 0.012 | 0.95 ± 0.02 | 0.9503 ± 0.0085 | 0.966 ± 0.029 | 0.774 ± 0.037 | 0.619 ± 0.02 | 0.257 ± 0.023
CC[C@H](Nc1ncnc2[nH]cnc12)c1nc2cccc(F)c2c(=O)n1-c1ccccc1 [Idelalisib] | 1.01 ± 0.021 | 1 ± 0.034 | 0.993 ± 0.03 | 0.964 ± 0.015 | 0.971 ± 0.038 | 0.972 ± 0.036 | 0.986 ± 0.022 | 0.937 ± 0.016 | 0.889 ± 0.031 | 0.867 ± 0.029 | 0.711 ± 0.023
Cc1cc(Nc2ncnc3ccc(NC4=NC(C)(C)CO4)cc23)ccc1Oc1ccn2ncnc2c1 [Tucatinib] | 0.988 ± 0.052 | 0.9678 ± 0.005 | 0.961 ± 0.03 | 0.95 ± 0.022 | 0.948 ± 0.031 | 0.939 ± 0.035 | 0.916 ± 0.013 | 0.89 ± 0.049 | 0.857 ± 0.0086 | 0.796 ± 0.02 | 0.515 ± 0.042
N#CC[C@H](C1CCCC1)n1cc(-c2ncnc3[nH]ccc23)cn1 [Ruxolitinib] | 1.02 ± 0.024 | 1.01 ± 0.024 | 0.997 ± 0.015 | 0.962 ± 0.058 | 0.992 ± 0.03 | 0.979 ± 0.058 | 0.957 ± 0.042 | 0.981 ± 0.02 | 0.84 ± 0.04 | 0.825 ± 0.042 | 0.679 ± 0.035
Cc1ccc(F)c(NC(=O)Nc2ccc(-c3cccc4[nH]nc(N)c34)cc2)c1 [Linifanib] | 0.979 ± 0.013 | 0.968 ± 0.02 | 0.942 ± 0.014 | 0.956 ± 0.035 | 0.974 ± 0.01 | 0.971 ± 0.015 | 0.969 ± 0.011 | 0.918 ± 0.033 | 0.935 ± 0.01 | 0.75 ± 0.21 | 0.933 ± 0.014
Cc1nc(NC(=O)N2CCC[C@H]2C(N)=O)sc1-c1ccnc(C(C)(C)C(F)(F)F)c1 [Alpelisib] | 0.884 ± 0.046 | 0.909 ± 0.053 | 0.901 ± 0.01 | 0.88 ± 0.052 | 0.879 ± 0.033 | 0.843 ± 0.034 | 0.774 ± 0.014 | 0.64 ± 0.016 | 0.526 ± 0.019 | 0.43 ± 0.015 | 0.323 ± 0.0056
